# Where a name gives a salt, the structure may show the parent alone.
# Key:
# Bet v 1.0101 [1] = target: T1, Bet v 1.0101 (Betula pendula, UniProt P15494); assay: crystal structure (soaked); 1H-15N HSQC NMR titration; relaxation dispersion; assay type: binding
# T1 construct: gene BETVIA
# T1 sequence (P15494 2-160): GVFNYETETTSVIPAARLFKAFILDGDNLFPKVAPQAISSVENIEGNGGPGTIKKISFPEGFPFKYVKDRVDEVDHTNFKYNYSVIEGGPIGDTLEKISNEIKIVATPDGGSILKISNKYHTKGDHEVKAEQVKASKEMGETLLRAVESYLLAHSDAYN
# Bet v 1.0101 [2] = target: T1, Bet v 1.0101; assay: 1H-15N HSQC NMR titration; PFG diffusion NMR; relaxation dispersion; assay type: binding
Kd (Bet v 1.0101 [1]) [µM],Kd (Bet v 1.0101 [2]) [µM],Structure (SMILES)
7,–,"CCCCCCCCCCCCOS(=O)(=O)O [SDS, sodium dodecyl sulfate]"
–,1,"CCCCC(CC)CCC(CC(C)C)OS(=O)(=O)O (centres unmarked) [STS, sodium tetradecyl sulfate]"

# Reference: publication PMC4269767, “Ligand Binding Modulates the Structural Dynamics and Compactness of the Major Birch Pollen Allergen” (Biophysical Journal, 2014)
